Data from paper PMC10531095, “Photonics of Some Monomethine Cyanine Dyes in Solutions and in Complexes with Biomolecules” (International Journal of Molecular Sciences, 2023).

Assays:
[1] = target: T1, human serum albumin (HSA) (Homo sapiens, UniProt P02768); assay: Spectral fluorescent titration of the dyes with HSA in PBS; format: binding
T1 construct: purchased Sigma-Aldrich
From the text: (§1) Complexation of MCD 1–4 with DNA (double-stranded and single-stranded) and with human serum albumin (HSA) was studied by spectral fluorescent methods in a wide range of biopolymer concentrations (cdsDNA = 0–1.5 × 10^−4 mol L^−1; cssDNA = 0–1.4 × 10^−4 mol L^−1; cHSA = 0–1.4 × 10^−4 mol L^−1 in PBS buffer). The absorption, fluorescence, and fluorescence excitation spectra of MCD 1 and 3 in the presence of dsDNA are shown in Figure 3 and Figure 4, respectively.
(§2) The complication of chemical equilibrium, and the variety of interactions between MCD and biopolymer (dye aggregation/deaggregation, the possibility of forming complexes of several types with DNA/HSA) makes it problematic to determine the exact values of the complexation constants of the dyes with DNA. The values of the effective equilibrium constants of the complexation reaction of MCD with biopolymers (Keff, L mol^−1, see Table 7) were estimated from spectral fluorescent data. In this case, we had to assume a simple equilibrium MCD (monomer, free) ⇄ MCD (monomer, bound). For these purposes, we used the Benesi–Hildebrand [59], Hill, and Scatchard formalisms (See Supplementary Materials, Equations (S9)–(S13)). For dsDNA, fitting according to the modified Scatchard equation was carried out assuming one dye molecule per one DNA turn (K1Sc at nSc = const = 10 b.p.), as well as varying both the constant (K2Sc) and the stoichiometric coefficient (nSc). In the case of ssDNA, nSc is given per one base; for HSA, nSc = 1.
Distilled water, 0.01 M aqueous phosphate buffer saline solution (PBS; pH 7.4, containing 0.137 M NaCl and 0.0027 M KCl), ethanol, benzyl alcohol, isopentyl alcohol, acetonitrile, DMSO, 1,4-dioxane, chloroform, DMSO, acetone, methyl ethyl ketone, ethyl acetate (all analytical grade). Commercial chick erythrocyte DNA (Reanal, Budapest, Hungary) and human serum albumin (HSA, Sigma-Aldrich, St. Louis, MO, USA) were used.
(§3) Absorption spectra were recorded on an SF-2000 spectrophotometer (Experimental-Construction Company “Spectrum”, St. Petersburg, Russia); fluorescence and fluorescence excitation spectra were recorded on a Fluorat-02-Panorama spectrofluorimeter (Group of Companies “Lumex”, St. Petersburg, Russia). The fluorescence and fluorescence excitation spectra were corrected for the spectral characteristics of the instrument (excitation channel signal) and sample transmission. Changes in the intrinsic fluorescence of HSA upon binding of MCD (in the presence of the dyes) were recorded in the synchronous fluorescence scanning (SFS) mode. In SFS mode, when registering spectra, a fixed difference Δλ= λfl − λex is maintained for the channels of excitation and registration. Synchronous scanning spectra were obtained at Δλ = 15 nm (fluorescence of tyrosine residues in the HSA molecule) and Δλ = 60 nm (fluorescence of tryptophan). The spectra were measured in 1 cm quartz semi-micro cells (Bio-Rad, Hercules, CA, USA).
The equilibrium constants of MCD complexation with biomolecules (Ka, L mol^−1) were obtained from fluorescence spectra using the Benesi–Hildebrand [59], Hill, and Scatchard equations [61] (see Supplementary Materials, Equations (S9)–(S13)). Limits of detection (LOD) and quantification (LOQ) of biomolecules were determined from concentration plots of MCD fluorescence intensities (see Supplementary Materials, Equations (S14) and (S15)). […]
1. Spectral‐Fluorescent Titration
In experiments on spectral‐fluorescence titration, MCD 1–4 were dosed from their concentrated st ock solutions in EtOH. Microvolumes (~0.5–5 μL) were dosed into the measuring cell (dilution 1:500 – 1:1000). […]
Measurements of the intrinsic fluorescence of HSA in the presence of MCD were carried out at a constant concentration of HSA (cHSA ~ 2.0 × 10–5 mol L–1) by titration with increasing concentrations of dyes. After stirring, the absorption and fluorescence spectra of the dyes were recorded several times. […]

ssDNA = assay: Spectral fluorescent titration of the dyes with ssDNA in PBS; format: binding, chick
From the text: as §1, §2
(§4) Single-stranded form of DNA (single-stranded DNA; ssDNA) was obtained according to the method described in [74]. The concentrations of DNA and the dyes were controlled spectrophotometrically. Molar extinction coefficient of dsDNA (ε, L⋅mol^−1⋅cm^−1) was taken to be 13,200 L mol^−1 cm^−1 (per base pair); for ssDNA, ε = 9045 L mol^−1 cm^−1 (per one base) was used. For MCD 1 and 2 in an aqueous buffer solution, we used extinction coefficients ε = 40,000 and 68,000 L mol^−1 cm^−1, respectively, which were taken from. For MCD 3 and 4, the molar extinction coefficients in ethanol solution were 69,200 and 49,000 L mol^−1 cm^−1 (taken from). […] Spectral fluorescent characteristics of MCD in complexes with biomacromolecules were studied by titration of dye solutions (see Supplementary Materials). The thermal dissociation (“melting”) of dsDNA in the presence of MCD was studied spectrophotometrically (λabs = 260 nm), the sample was heated (t° = 30–95 °C) using Peltier cells, and the temperature was controlled using a thermocouple. Melting points tm, corresponding to 50% hyperchromia of DNA samples were obtained.
as §3
(§5) The equilibrium constants of MCD complexation with biomolecules (Ka, L mol^−1) were obtained from fluorescence spectra using the Benesi–Hildebrand [59], Hill, and Scatchard equations [61] (see Supplementary Materials, Equations (S9)–(S13)). […]

dsDNA = assay: Spectral fluorescent titration of the dyes with dsDNA in PBS; format: binding, chick; conditions: for αb, proportion of bound dye: cbiomol = 5 × 10^−5 mol L^−1
From the text: as §1, §2, §4, §3, §5

T1 sequence (P02768 25-609): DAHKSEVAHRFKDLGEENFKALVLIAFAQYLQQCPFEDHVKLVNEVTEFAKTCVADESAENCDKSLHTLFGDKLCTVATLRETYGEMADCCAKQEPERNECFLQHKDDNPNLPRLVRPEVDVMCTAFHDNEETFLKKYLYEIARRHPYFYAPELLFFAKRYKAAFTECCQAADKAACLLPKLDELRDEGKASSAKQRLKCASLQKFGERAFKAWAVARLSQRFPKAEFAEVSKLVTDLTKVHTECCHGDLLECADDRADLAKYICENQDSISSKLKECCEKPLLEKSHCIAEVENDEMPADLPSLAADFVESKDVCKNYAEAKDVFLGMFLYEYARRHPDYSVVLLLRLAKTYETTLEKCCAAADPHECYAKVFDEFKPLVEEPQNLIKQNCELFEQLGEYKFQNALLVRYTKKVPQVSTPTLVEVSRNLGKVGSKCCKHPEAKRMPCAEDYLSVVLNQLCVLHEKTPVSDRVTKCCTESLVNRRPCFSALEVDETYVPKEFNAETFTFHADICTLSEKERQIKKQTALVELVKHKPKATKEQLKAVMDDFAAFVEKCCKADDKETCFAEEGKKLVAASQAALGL

CC[N+](CC)(CC)CCC[n+]1ccc(/C=C2\Sc3ccccc3N2C)c2ccc(O)cc21 [MCD 1]
LR, linear portion of fluorescence intensity vs. concentration plot ([1]; HSA): 0–0.6 ^3 µmol L^−1
nHill, Hill coefficient ([1]; HSA): 0.89
nSc, stoichiometric coefficient (Scatchard) ([1]; HSA (nSc = 1 taken for HSA)): 1
lower sensitivity to HSA than to dsDNA ([1]; HSA versus dsDNA): about 37 times
KeffHill, effective complexation constant (Hill) ([1]; HSA, PBS buffer): 3350 L/mol
εf/εb, relative change in molar extinction coefficient on complexation ([1]; HSA, PBS buffer): 1.59
KeffBH, effective complexation constant (Benesi–Hildebrand) ([1]; HSA, PBS buffer, fluorescent titration): 8000 L/mol
αb, proportion of bound dye ([1]; HSA, cbiomol = 5 × 10^−5 mol L^−1): 27%
Fmax/F0, fluorescence growth at 100% binding ([1]; HSA, from the Benesi–Hildebrand dependence): 65
K2Sc, complexation constant (Scatchard) ([1]; HSA, nSc = 1): 7300 L/mol
hypochromia of the absorption band ([1]; cHSA = 2.5 × 10^−7 mol L^−1): ~ 25%
φfl^b, fluorescence quantum yield of the dye in the presence of biopolymer ([1]; cHSA~5 × 10^−5 mol L^−1): ~1 ± 0.1%
hypochromia of the absorption band ([1]; cHSA~9 × 10^−6 mol L^−1, crel(HSA) = 3): ~ 36%
LOD ([1]; detection of HSA): 270 nM
LOQ ([1]; quantification of HSA): 890 nM
Ifl/Ifl0, relative increase in the fluorescence intensity (ssDNA; cssDNA = 5 × 10^−5 mol L^−1): ~ 40
φfl^b, fluorescence quantum yield of the dye in the presence of biopolymer (ssDNA; cssDNA~5 × 10^−5 mol L^−1): 12 ± 1.5%
decrease of the observed extinction coefficients (ssDNA; cssDNA~8 × 10^−5 mol L^−1): 40%
LOD (ssDNA; detection of ssDNA): 40 nM
LOQ (ssDNA; quantification of ssDNA): 120 nM
K1Sc, complexation constant (Scatchard) (ssDNA; ssDNA): 228000 L/mol
nHill, Hill coefficient (ssDNA; ssDNA): 0.7
KeffHill, effective complexation constant (Hill) (ssDNA; ssDNA, PBS buffer): 2830 L/mol
KeffBH, effective complexation constant (Benesi–Hildebrand) (ssDNA; ssDNA, PBS buffer, fluorescent titration): 24200 L/mol
αb, proportion of bound dye (ssDNA; ssDNA, cbiomol = 5 × 10^−5 mol L^−1): 60%
K2Sc, complexation constant (Scatchard) (ssDNA; ssDNA, constant and nSc both varied): 159000 L/mol
Fmax/F0, fluorescence growth at 100% binding (ssDNA; ssDNA, from the Benesi–Hildebrand dependence): 60.9
nSc, stoichiometric coefficient (Scatchard) (ssDNA; ssDNA, per one base): 2
Ifl/Ifl0, relative increase in the fluorescence intensity (dsDNA; cdsDNA = 1 × 10^−4 mol L^−1): about 425 times
φfl^b, fluorescence quantum yield of the dye in the presence of biopolymer (dsDNA; cdsDNA~5 × 10^−5 mol L^−1): 13 ± 1.5%
LOD (dsDNA; detection of dsDNA): 7.2 nM
LOD (dsDNA; dsDNA): about 10^−8 mol L^−1
LOQ (dsDNA; dsDNA): about 10^−8 mol L^−1
nHill, Hill coefficient (dsDNA; dsDNA): 1.04
nSc, stoichiometric coefficient (Scatchard) (dsDNA; dsDNA): 2
KeffHill, effective complexation constant (Hill) (dsDNA; dsDNA, PBS buffer): 53400 L/mol
KeffBH, effective complexation constant (Benesi–Hildebrand) (dsDNA; dsDNA, PBS buffer, fluorescent titration): 54000 L/mol
αb, proportion of bound dye (dsDNA; dsDNA): ~80%
αb, proportion of bound dye (dsDNA; dsDNA, listed as 1): 80%
K2Sc, complexation constant (Scatchard) (dsDNA; dsDNA, constant and nSc both varied): 169000 L/mol
Fmax/F0, fluorescence growth at 100% binding (dsDNA; dsDNA, from the Benesi–Hildebrand dependence): 460
K1Sc, complexation constant (Scatchard) (dsDNA; dsDNA, nSc = const = 10 b.p.): 793000 L/mol
hypochromia of the absorption band (dsDNA; high concentrations of dsDNA): 8%
LOQ (dsDNA; quantification of dsDNA): 21 nM
